Test results: publication PMC4837090 (Nature chemical biology, 2016)

Tests used:
hAIG1 = molecular target: T1, hAIG1 (Homo sapiens, UniProt Q9NVV5); type: binding
T1 sequence (Q9NVV5 1-238): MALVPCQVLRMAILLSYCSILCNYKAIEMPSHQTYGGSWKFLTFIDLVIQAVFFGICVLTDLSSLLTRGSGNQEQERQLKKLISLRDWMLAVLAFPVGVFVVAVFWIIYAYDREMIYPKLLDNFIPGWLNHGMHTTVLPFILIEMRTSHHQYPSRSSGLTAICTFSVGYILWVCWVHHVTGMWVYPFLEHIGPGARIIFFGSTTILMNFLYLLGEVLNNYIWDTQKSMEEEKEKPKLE

LNCaP cells = experiment: in situ 13C,2H-PAHSA hydrolysis; type: cell-based, human; conditions: 5 μM, 4 h, then 2 μM 13C,2H-PAHSA 2 h

## CCCCCCCCCCC[C@@H](C[C@@H]1OC(=O)[C@H]1CCCCCC)OC(=O)[C@H](CC(C)C)NC=O [THL, tetrahydrolipstatin]
hAIG1
  inhibition of FP reactivity of AIG1: did not inhibit
LNCaP cells
  reduction in 13C16-PA and 2H19-HSA products (13C,2H-PAHSA hydrolysis) vs DMSO: negligible alterations
